Measured values from the NIST ThermoML archive (doi:10.1016/j.jct.2010.10.021).
Values joined by “and” are separate entries in the source; they are usually repeats but may differ in a detail not shown here. Identical values can stand only once. Numbers after ± are expanded uncertainties.

Test: xn = mol fraction of the nth substance listed
Conditions: 100 kPa, Liquid, Frequency=5 MHz, Single path-length method, x1 = 0.7

speed of sound (1243 K) | speed of sound (1254 K) | speed of sound (1260 K) | speed of sound (1261 K) | speed of sound (1271 K) | speed of sound (1278 K) | Structure (SMILES)
1408 ± 28 m/s | 1394 ± 28 m/s | 1385 ± 28 m/s | – | – | – | [F-].[Li+] [lithium fluoride] + [Br-].[K+]
– | – | – | 1236 ± 25 m/s and 1235 ± 25 m/s | 1226 ± 25 m/s | 1220 ± 24 m/s | [F-].[Li+] [lithium fluoride] + [Cl-].[Cs+]
